What follows are compounds tested against T1, TLR8 (Homo sapiens, UniProt Q9NR97) (assay: PBMC assay for TLR8 (TNFα in supernatants by ELISA)). Conditions: human PBMCs incubated with compound overnight, MC50 = concentration at which 50% of the maximum induction is seen.
T1 sequence (Q9NR97 27-1041): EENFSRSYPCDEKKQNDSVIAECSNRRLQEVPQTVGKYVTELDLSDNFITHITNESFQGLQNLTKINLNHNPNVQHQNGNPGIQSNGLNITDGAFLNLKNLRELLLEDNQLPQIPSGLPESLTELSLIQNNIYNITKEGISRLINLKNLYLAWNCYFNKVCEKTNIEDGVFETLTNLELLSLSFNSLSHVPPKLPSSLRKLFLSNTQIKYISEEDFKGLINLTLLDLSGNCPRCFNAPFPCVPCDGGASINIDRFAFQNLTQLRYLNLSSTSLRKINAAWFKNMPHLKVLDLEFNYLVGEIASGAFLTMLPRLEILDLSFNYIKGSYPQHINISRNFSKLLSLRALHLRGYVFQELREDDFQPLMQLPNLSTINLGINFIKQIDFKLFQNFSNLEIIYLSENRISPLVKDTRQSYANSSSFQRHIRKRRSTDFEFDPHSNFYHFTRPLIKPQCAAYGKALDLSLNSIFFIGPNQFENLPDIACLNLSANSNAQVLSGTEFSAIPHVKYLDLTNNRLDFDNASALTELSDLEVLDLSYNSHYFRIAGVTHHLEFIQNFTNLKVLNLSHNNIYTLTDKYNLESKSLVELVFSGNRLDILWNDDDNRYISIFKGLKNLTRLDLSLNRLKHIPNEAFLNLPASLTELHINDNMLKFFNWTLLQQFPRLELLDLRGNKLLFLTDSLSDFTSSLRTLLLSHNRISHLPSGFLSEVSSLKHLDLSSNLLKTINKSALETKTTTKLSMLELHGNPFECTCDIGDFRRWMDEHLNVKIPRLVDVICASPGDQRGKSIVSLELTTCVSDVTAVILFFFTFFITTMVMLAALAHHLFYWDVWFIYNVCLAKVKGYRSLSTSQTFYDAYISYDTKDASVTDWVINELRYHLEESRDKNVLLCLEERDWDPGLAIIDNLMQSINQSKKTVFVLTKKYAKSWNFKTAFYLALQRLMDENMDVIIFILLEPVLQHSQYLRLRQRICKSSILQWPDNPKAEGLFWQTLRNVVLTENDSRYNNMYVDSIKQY
Type: cell-based
Set-up: Peripheral blood mononuclear cells (PBMCs) from human blood were isolated; endogenous in cells; host or cells: human PBMCs
Protocol: Peripheral blood mononuclear cells (PBMCs) from human blood were isolated using BD Vacutainer Cell Preparation Tubes with sodium citrate. Cells were incubated with compound overnight. TLR8 activity was assayed by measuring the amount of TNFα in supernatants by ELISA. TLR7 activity was assayed by measuring the amount of IFNα in supernatants by ELISA (R&D Systems). […] The results of this assay are shown below in Tables 2 and 3.
MC50 numbers are represented as factors of ten, for example, + indicates an MC50 value of ×10^4, or a value in the tens of thousands of nanomolar (nM range); ++ indicates an MC50 value of ×10^3, or a value in the thousands; +++ indicates an MC50 value of ×10^2, or a value in the hundreds; and ++++ indicates an MC50 value of ×10^1 or 10°, or a value in the tens or ones.

`CCCNC(=O)C1=Cc2ccc(-c3ccc(C(=O)N4CCCC4)cc3)cc2N=C(N)C1` [Compound 101, (1E,4E)-2-amino-N-propyl-8-(4-(pyrrolidine-1-carbonyl)phenyl)-3H-benzo[b]azepine-4-carboxamide] and `CCCN(C(=O)C1=Cc2ccc(-c3ccc(C(=O)N4CCCC4)cc3)cc2N=C(N)C1)C(C)CC` (centres unmarked) [Compound 102, (1E,4E)-2-amino-N-sec-butyl-N-propyl-8-(4-(pyrrolidine-1-carbonyl)phenyl)-3H-benzo[b]azepine-4-carboxamide] fall in the same range of EC50: 100 to 1000 nM for the first, 100 to 1000 nM for the second.

First: CCCN(CCO)C(=O)C1=Cc2ccc(-c3ccc(C(=O)N4CCCC4)cc3)cc2N=C(N)C1 [Compound 107, (1E,4E)-2-amino-N-(2-hydroxyethyl)-N-propyl-8-(4-(pyrrolidine-1-carbonyl)phenyl)-3H-benzo[b]azepine-4-carboxamide]
Second: CCCN(CC(O)CO)C(=O)C1=Cc2ccc(-c3ccc(C(=O)N4CCCC4)cc3)cc2N=C(N)C1 (centres unmarked) [Compound 110, (1E,4E)-2-amino-N-(2,3-dihydroxypropyl)-N-propyl-8-(4-(pyrrolidine-1-carbonyl)phenyl)-3H-benzo[b]azepine-4-carboxamide]
The EC50 of the first is lower: 1 to 100 nM for the first, 1000 to 10000 nM for the second.

Compared with `NC1=Nc2cc(-c3ccc(C(=O)N4CCCC4)cc3)ccc2C=C(C(=O)N(C2CCNCC2)C2CC2)C1` [Compound 115, (1E,4E)-2-amino-N-cyclopropyl-N-(piperidin-4-yl)-8-(4-(pyrrolidine-1-carbonyl)phenyl)-3H-benzo[b]azepine-4-carboxamide], `NC1=Nc2cc(-c3ccc(C(=O)N4CCCC4)cc3)ccc2C=C(C(=O)N2CCCC2)C1` [Compound 121, (4-((1E,4E)-2-amino-4-(pyrrolidine-1-carbonyl)-3H-benzo[b]azepin-8-yl)phenyl)(pyrrolidin-1-yl)methanone] is higher in EC50: 1000 to 10000 nM for the first, 10000 to 100000 nM for the second. The first is the more potent here.

First: COCCN(CCOC)C(=O)C1=Cc2ccc(-c3ccc(C(=O)N4CCCC4)cc3)cc2N=C(N)C1 [Compound 120, (1E,4E)-2-amino-N,N-bis(2-methoxyethyl)-8-(4-(pyrrolidine-1-carbonyl)phenyl)-3H-benzo[b]azepine-4-carboxamide]
Second: CCCN(CCC)C(=O)C1=Cc2ccc(-c3ccc(C(=O)N4C[C@H](O)[C@@H](O)C4)cc3)cc2N=C(N)C1 [Compound 129, (1E,4E)-2-amino-8-(4-((3S,4S)-3,4-dihydroxypyrrolidine-1-carbonyl)phenyl)-N,N-dipropyl-3H-benzo[b]azepine-4-carboxamide]
The EC50 of the first is higher: 1000 to 10000 nM for the first, 100 to 1000 nM for the second.

Compared with `NC1=Nc2cc(-c3ccc(C(=O)N4CCCC4)cc3)ccc2C=C(C(=O)N2CCCCC2)C1` [Compound 122, (4-((1E,4E)-2-amino-4-(piperidine-1-carbonyl)-3H-benzo[b]azepin-8-yl)phenyl)(pyrrolidin-1-yl)methanone], `CCCN(CCC)C(=O)C1=Cc2ccc(-c3ccc(C(=O)N4C[C@@H](O)[C@H](O)C4)cc3)cc2N=C(N)C1` [Compound 130, (1E,4E)-2-amino-8-(4-((3R,4R)-3,4-dihydroxypyrrolidine-1-carbonyl)phenyl)-N,N-dipropyl-3H-benzo[b]azepine-4-carboxamide] is lower in EC50: 1000 to 10000 nM for the first, 100 to 1000 nM for the second.

First: CCOC(=O)C1=Cc2ccc(-c3ccccn3)cc2N=C(N)C1 [Compound 141, (1E,4E)-ethyl 2-amino-8-(pyridin-2-yl)-3H-benzo[b]azepine-4-carboxylate]
Second: CCOC(=O)C1=Cc2ccc(-c3cccc(C#N)c3)cc2N=C(N)C1 [Compound 145, (1E,4E)-ethyl 2-amino-8-(3-cyanophenyl)-3H-benzo[b]azepine-4-carboxylate]
The EC50 of the first is higher: 100 to 1000 nM for the first, 1 to 100 nM for the second.

`CCOC(=O)C1=Cc2ccc(-c3ccc(C#N)cc3)cc2N=C(N)C1` [Compound 146, (1E,4E)-ethyl 2-amino-8-(4-cyanophenyl)-3H-benzo[b]azepine-4-carboxylate] and `CCOC(=O)C1=Cc2ccc(-c3ccc(C(=O)N(CC)CC)cc3)cc2N=C(N)C1` [Compound 155, (1E,4E)-ethyl 2-amino-8-(4-(diethylcarbamoyl)phenyl)-3H-benzo[b]azepine-4-carboxylate] fall in the same range of EC50: 100 to 1000 nM for the first, 100 to 1000 nM for the second.
